How the values were obtained:
[1] = target: T1, KIF5B-RET-BaF3 (Homo sapiens, UniProt P07949); assay: Growth inhibition of KIF5B-RET-BaF3 cells stably transfected with kinase (MTS); assay type: cell-based; details: 48 h, read-out: KIF5B-RET (IC50/nM)
T1 construct: fused on or other part: P33176 (Kinesin-1 heavy chain)
Description: (§1) Growth inhibitory activity of compounds on cell lines stably transfected with kinase
(§2) The activity of compounds against kinase RET is evaluated by their effect of inhibiting growth of cell lines stably transfected with kinase CCDC6-RET-BaF3, KIF5B-RET-BaF3, and wild-type BaF3 (Proc. Natl. Acad. Sci. USA., 2006, 103, 3153-8.). The growth of the cell lines stably transfected with kinase CCDC6-RET-BaF3, KIF5B-RET-BaF3 depends on their kinase activity. If a compound can inhibit the activity of the kinase RET per se or the activity of the RET signaling pathway, the compound can inhibit the growth of BaF3 cells stably transfected with kinase. […] Therefore, a larger ratio between IC50 of a compound to wild-type BaF3 and IC50 of the compound to the cell lines stably transfected with kinase CCDC6-RET-BaF3, KIF5B-RET-BaF3 indicates better targeting.
(§3) The specific test method is given as follows:
(§4) 1) Medium: DMEM (Dulbecco's modified eagle medium) or RPMI 1640 (containing 10% fetal bovine serum, 100 μg/mL ampicillin, 100 μg/mL streptomycin).
(§5) 2) Reagents: MTS reaction solution (containing 2 mg/mL of MTS [3-(4,5-dimethylthiazol-2-yl)-5-(3-carboxymethoxyphenyl)-2-(4-sulfophenyl)-2H-tetrazolium, inner Salt]; 100 μg/mL PES (phenazine […])).
(§6) 3) Compound test: cells stably transfected with kinase (CCDC6-RET-BaF3, KIF5B-RET-BaF3) or wild-type BaF3 cells (2×10^4 cells/well) were incubated into a 96-well culture plate, the volume of cell culture fluid was 90 μL, and then 10 μL of the compound at each gradient concentration was added (the highest concentration was 10 μM, which was diluted stepwise by ⅓, and 8 concentration points were set in total; the system contained 0.1% DMSO (dimethyl sulfoxide)). The cell plate with uniformly mixed compound was cultured in a cell culture incubator (37° C.; 5% CO2) for 48 h, then 20 μL of MTS reaction solution was added, uniformly mixed and incubated in the cell culture incubator (37° C.; 5% CO2) for 1-4 hr, OD values at 490 nm were measured by a microplate reader (VARIOSKAN FLASH, Thermo). Three parallels were set in each group of experiments, with 0.1% (a final concentration) DMSO as a negative control, and a medium without cells or compounds as a blank control. The cell growth inhibition rate was calculated by the following formula: Cell growth inhibition rate %=1−(ODexperimental group−ODblank group)/(ODnegative group−ODblank group)×100%
(§7) 4) IC50 calculation: The semi-inhibitory concentration of the compound acting on cell growth was calculated using GradPad Prism 5 software according to the measured cell growth inhibition rate.

[2] = target: T2, CCDC6-RET-BaF3 (Homo sapiens, UniProt P07949); assay: Growth inhibition of CCDC6-RET-BaF3 cells stably transfected with kinase (MTS); assay type: cell-based; details: 48 h, read-out: CCDC6-RET (IC50/nM)
T2 construct: fused on or other part: Q16204 (Coiled-coil domain-containing protein 6)
T2 sequence (P07949 whole entry, change not shown, the tested form may be a part): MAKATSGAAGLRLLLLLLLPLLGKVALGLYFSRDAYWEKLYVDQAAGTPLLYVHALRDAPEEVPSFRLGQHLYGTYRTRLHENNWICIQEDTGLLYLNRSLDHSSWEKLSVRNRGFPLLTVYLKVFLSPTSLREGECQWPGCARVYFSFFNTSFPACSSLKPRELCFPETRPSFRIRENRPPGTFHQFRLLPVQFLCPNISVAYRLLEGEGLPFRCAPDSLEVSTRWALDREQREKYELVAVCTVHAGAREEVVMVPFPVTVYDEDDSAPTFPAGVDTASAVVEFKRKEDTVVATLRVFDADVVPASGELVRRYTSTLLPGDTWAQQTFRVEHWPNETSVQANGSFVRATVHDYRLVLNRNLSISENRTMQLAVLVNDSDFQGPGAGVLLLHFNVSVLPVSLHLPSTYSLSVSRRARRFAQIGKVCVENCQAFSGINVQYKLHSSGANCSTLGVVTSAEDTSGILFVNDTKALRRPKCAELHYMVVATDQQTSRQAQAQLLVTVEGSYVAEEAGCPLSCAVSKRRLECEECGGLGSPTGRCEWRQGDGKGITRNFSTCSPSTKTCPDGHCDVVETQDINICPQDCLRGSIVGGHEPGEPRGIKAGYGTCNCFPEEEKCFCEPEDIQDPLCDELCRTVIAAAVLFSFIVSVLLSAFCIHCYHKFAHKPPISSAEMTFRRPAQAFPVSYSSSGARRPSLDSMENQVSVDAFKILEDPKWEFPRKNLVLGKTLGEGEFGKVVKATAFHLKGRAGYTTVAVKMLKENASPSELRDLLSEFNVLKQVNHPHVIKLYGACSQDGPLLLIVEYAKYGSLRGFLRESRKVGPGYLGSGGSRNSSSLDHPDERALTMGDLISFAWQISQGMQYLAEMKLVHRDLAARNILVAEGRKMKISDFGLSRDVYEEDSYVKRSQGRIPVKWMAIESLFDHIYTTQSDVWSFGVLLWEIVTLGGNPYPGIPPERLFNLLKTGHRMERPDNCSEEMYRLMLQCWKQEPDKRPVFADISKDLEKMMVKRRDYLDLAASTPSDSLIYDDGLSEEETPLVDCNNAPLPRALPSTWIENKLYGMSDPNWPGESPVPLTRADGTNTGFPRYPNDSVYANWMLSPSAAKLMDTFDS
Description: as §1, §2, §3, §4, §5, §6, §7

T1 sequence (P07949 whole entry, change not shown, the tested form may be a part): as above

Row | Structure (SMILES) | GI50 [1] [nM] | GI50 [2] [nM]
1 | Cc1ccc(Oc2nc(-c3ccncc3)nc3c2ncn3C)cc1C(=O)Nc1cccc(C(F)(F)F)c1 [I-f-2] | 8120 | 4850
2 | CC(C)n1cnc2c(Oc3cccc(NC(=O)c4ccc(CN5CCN(C)CC5)c(C(F)(F)F)c4)c3)nc(-c3ccncc3)nc21 [I-h-1] | 2290 | 4930
3 | Cc1ccc(Oc2nc(-c3ccncc3)nc3c2ncn3C)cc1NC(=O)c1ccc(CN2CCN(C)CC2)c(C(F)(F)F)c1 [I-j-1] | 2.74 | 0.741
4 | Cc1ccc(C(=O)Nc2ccc(CN3CCN(C)CC3)c(C(F)(F)F)c2)cc1Oc1nc(-c2cccnc2)nc2c1ncn2C [I-m-2] | 1300 | 710
5 | Cc1ccc(C(=O)Nc2ccc(CN3CCN(C)CC3)c(C(F)(F)F)c2)cc1Oc1nc(-c2ccncc2)nc2c1ncn2C [I-m-3] | 1050 | 447
6 | Cc1ccc(Oc2nc(-c3ccccc3)nc3c2ncn3C)cc1C(=O)Nc1ccc(CN2CCN(C)CC2)c(C(F)(F)F)c1 [I-n-4] | 2370 | 2700
7 | Cc1ccc(Oc2nc(-c3cccc(Cl)c3)nc3c2ncn3C)cc1C(=O)Nc1ccc(CN2CCN(C)CC2)c(C(F)(F)F)c1 [I-n-5] | 1510 | 1540
8 | Cc1ccc(Oc2nc(-c3ccc(Cl)cc3)nc3c2ncn3C)cc1C(=O)Nc1ccc(CN2CCN(C)CC2)c(C(F)(F)F)c1 [I-n-6] | 1380 | 1780
9 | Cc1ccc(Oc2nc(-c3cccc(O)c3)nc3c2ncn3C)cc1C(=O)Nc1ccc(CN2CCN(C)CC2)c(C(F)(F)F)c1 [I-n-7] | 1450 | 1560
10 | Cc1ccc(Oc2nc(-c3ccc(O)cc3)nc3c2ncn3C)cc1C(=O)Nc1ccc(CN2CCN(C)CC2)c(C(F)(F)F)c1 [I-n-8] | 1330 | 1210
11 | Cc1ccc(Oc2nc(-c3cccc(N)c3)nc3c2ncn3C)cc1C(=O)Nc1ccc(CN2CCN(C)CC2)c(C(F)(F)F)c1 [I-n-9] | 1480 | 1550
12 | Cc1ccc(Oc2nc(-c3ccc(N)cc3)nc3c2ncn3C)cc1C(=O)Nc1ccc(CN2CCN(C)CC2)c(C(F)(F)F)c1 [I-n-10] | 1400 | 1400
13 | Cc1ccc(Oc2nc(-c3ccoc3)nc3c2ncn3C)cc1C(=O)Nc1ccc(CN2CCN(C)CC2)c(C(F)(F)F)c1 [I-n-11] | 1960 | 1200
14 | Cc1ccc(Oc2nc(-c3ccsc3)nc3c2ncn3C)cc1C(=O)Nc1ccc(CN2CCN(C)CC2)c(C(F)(F)F)c1 [I-n-12] | 1860 | 2030
15 | Cc1ccc(Oc2ncnc3c2ncn3C)cc1C(=O)Nc1ccc(CN2CCN(C)CC2)c(C(F)(F)F)c1 [I-n-13] | 4850 | 3010
16 | Cc1ccc(Oc2nc(-c3ccncc3)nc3c2ncn3C(C)C)cc1C(=O)Nc1ccc(CN2CCN(C)CC2)c(C(F)(F)F)c1 [I-n-14] | 47 | 163
17 | CN1CCN(Cc2ccc(NC(=O)c3cc(Oc4nc(-c5cccnc5)nc5c4ncn5C)ccc3Cl)cc2C(F)(F)F)CC1 [I-o-1] | 1390 | 1470
18 | CN1CCN(Cc2ccc(NC(=O)c3cc(Oc4nc(-c5ccncc5)nc5c4ncn5C)ccc3Cl)cc2C(F)(F)F)CC1 [I-o-2] | 3.15 | 20.6
19 | CN1CCN(Cc2ccc(NC(=O)c3cc(Oc4nc(-c5ccccc5)nc5c4ncn5C)ccc3Cl)cc2C(F)(F)F)CC1 [I-o-3] | 1380 | 1380
20 | CN1CCN(Cc2ccc(NC(=O)c3cc(Oc4nc(-c5cccc(Cl)c5)nc5c4ncn5C)ccc3Cl)cc2C(F)(F)F)CC1 [I-o-4] | 1410 | 1400
21 | CN1CCN(Cc2ccc(NC(=O)c3cc(Oc4nc(-c5ccc(Cl)cc5)nc5c4ncn5C)ccc3Cl)cc2C(F)(F)F)CC1 [I-o-5] | 1390 | 1320
22 | CN1CCN(Cc2ccc(NC(=O)c3cc(Oc4nc(-c5cccc(O)c5)nc5c4ncn5C)ccc3Cl)cc2C(F)(F)F)CC1 [I-o-6] | 1360 | 1290
23 | CN1CCN(Cc2ccc(NC(=O)c3cc(Oc4nc(-c5ccc(O)cc5)nc5c4ncn5C)ccc3Cl)cc2C(F)(F)F)CC1 [I-o-7] | 1210 | 903
24 | CN1CCN(Cc2ccc(NC(=O)c3cc(Oc4nc(-c5cccc(N)c5)nc5c4ncn5C)ccc3Cl)cc2C(F)(F)F)CC1 [I-o-8] | 1490 | 1590

Row | Structure (SMILES) | GI50 [1] [nM] | GI50 [2] [nM]
25 | CN1CCN(Cc2ccc(NC(=O)c3cc(Oc4nc(-c5ccc(N)cc5)nc5c4ncn5C)ccc3Cl)cc2C(F)(F)F)CC1 [I-o-9] | 1500 | 1390
26 | CN1CCN(Cc2ccc(NC(=O)c3cc(Oc4nc(-c5ccoc5)nc5c4ncn5C)ccc3Cl)cc2C(F)(F)F)CC1 [I-o-10] | 1910 | 1370
27 | CN1CCN(Cc2ccc(NC(=O)c3cc(Oc4nc(-c5ccsc5)nc5c4ncn5C)ccc3Cl)cc2C(F)(F)F)CC1 [I-o-11] | 1560 | 1680
28 | CC(C)n1cnc2c(Oc3ccc(Cl)c(C(=O)Nc4ccc(CN5CCN(C)CC5)c(C(F)(F)F)c4)c3)nc(-c3ccncc3)nc21 [I-o-12] | 154 | 55.2
29 | Cc1ccc(C(=O)Nc2cccc(C(F)(F)F)c2)cc1Oc1nc(-c2cccnc2)nc2c1cnn2C [II-e-1] | 2240 | 1970
30 | CN1CCN(Cc2ccc(C(=O)Nc3cccc(Oc4nc(-c5cccnc5)nc5c4cnn5C)c3)cc2C(F)(F)F)CC1 [II-h-1] | 953 | 1110
31 | CN1CCN(Cc2ccc(C(=O)Nc3cccc(Oc4nc(-c5ccncc5)nc5c4cnn5C)c3)cc2C(F)(F)F)CC1 [II-h-2] | 106 | 140
32 | Cc1ccc(NC(=O)c2ccc(CN3CCN(C)CC3)c(C(F)(F)F)c2)cc1Oc1nc(-c2cccnc2)nc2c1cnn2C [II-i-1] | 411 | 477
33 | Cc1ccc(NC(=O)c2ccc(CN3CCN(C)CC3)c(C(F)(F)F)c2)cc1Oc1nc(-c2ccncc2)nc2c1cnn2C [II-i-2] | 469 | 617
34 | Cc1ccc(NC(=O)c2ccc(CN3CCN(C)CC3)c(C(F)(F)F)c2)cc1Oc1ncnc2c1cnn2C [II-i-3] | 1040 | 881
35 | Cc1ccc(Oc2nc(-c3cccnc3)nc3c2cnn3C)cc1NC(=O)c1ccc(CN2CCN(C)CC2)c(C(F)(F)F)c1 [II-j-1] | 4420 | 4170
36 | Cc1ccc(Oc2nc(-c3ccncc3)nc3c2cnn3C)cc1NC(=O)c1ccc(CN2CCN(C)CC2)c(C(F)(F)F)c1 [II-j-2] |  | 13.1
37 | Cc1ccc(Oc2nc(-c3ccoc3)nc3c2cnn3C)cc1NC(=O)c1ccc(CN2CCN(C)CC2)c(C(F)(F)F)c1 [II-j-3] | 3210 | 1420
38 | Cc1ccc(Oc2nc(-c3ccsc3)nc3c2cnn3C)cc1NC(=O)c1ccc(CN2CCN(C)CC2)c(C(F)(F)F)c1 [II-j-4] | 2360 | 2070
39 | CCn1ncc2c(Oc3cc(C(=O)Nc4ccc(CN5CCN(C)CC5)c(C(F)(F)F)c4)ccc3C)nc(-c3ccncc3)nc21 [II-m-22] |  | > 10000
40 | CC(=O)NC1CCN(c2ccc(NC(=O)c3ccc(C)c(Oc4nc(-c5cccnc5)nc5ccn(C)c45)c3)cc2C(F)(F)F)CC1 [III-v-2] |  | < 4
41 | CC(=O)NCC1CCN(c2ccc(NC(=O)c3ccc(C)c(Oc4nc(-c5ccncc5)nc5ccn(C)c45)c3)cc2C(F)(F)F)CC1 [III-v-3] |  | 23800
42 | CCC(=O)NCC1CCN(c2ccc(NC(=O)c3ccc(C)c(Oc4nc(-c5cccnc5)nc5ccn(C)c45)c3)cc2C(F)(F)F)CC1 [III-v-4] |  | < 4
43 | CCC(=O)NCC1CCN(c2ccc(NC(=O)c3ccc(C)c(Oc4nc(-c5cccnc5)nc5ccn(C)c45)c3)cc2C(F)(F)F)CC1 [III-v-5] |  | < 4
44 | CC(=O)NCC1CCN(c2ccc(NC(=O)c3ccc(C)c(Oc4nc(-c5cccnc5)nc5ccn(C)c45)c3)cc2C(F)(F)F)CC1 [III-v-6] |  | < 4
45 | CCC(=O)NC1CCN(c2ccc(NC(=O)c3ccc(C)c(Oc4nc(-c5cccnc5)nc5ccn(C)c45)c3)cc2C(F)(F)F)CC1 [III-v-7] |  | 148000
46 | CCS(=O)(=O)NC1CCN(c2ccc(NC(=O)c3ccc(C)c(Oc4nc(-c5cccnc5)nc5ccn(C)c45)c3)cc2C(F)(F)F)CC1 [III-v-10] |  | < 4
47 | CCC(=O)NCC1CCN(c2ccc(NC(=O)c3ccc(C)c(Oc4nc(-c5ccncc5)nc5cc[nH]c45)c3)cc2C(F)(F)F)CC1 [III-v-13] |  | 18300

— patent publication US11319322B2, “Substituted aryl ether compound, preparation method thereof, pharmaceutical composition and use thereof” (Xiamen University, priority 2017, dated 2022)
